Counter-ions that a name gives are not always drawn. Like-named read-outs stand apart in the source and are kept apart here.

The test system of assay [1] is EVSA-T (human breast carcinoma). In words: Anti-proliferative activity, Alamar Blue assay, EVSA-T. The format is cell-based.
The target in assay [2] is T1, BIR3 domain of human XIAP (Homo sapiens, UniProt P98170).
T1 construct: BIR3 domain of human XIAP (residues 252-350) fused to a His-tag; His-tag (cleaved yes); made in house; host or cells: Escherichia coli
T1 sequence (P98170 252-350): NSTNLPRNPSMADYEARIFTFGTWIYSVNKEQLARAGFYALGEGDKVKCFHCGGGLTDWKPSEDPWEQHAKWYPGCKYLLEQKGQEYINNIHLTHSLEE
In words: XIAP in vitro competitive displacement binding assay (fluorescence polarization). The following applies: for inhibition at 0.04 µM: 1 h, read-out: Xiap IC50 or PI μM (PI).

Assay [3] has as its target T2, BIR3 domain of human cIAP-1 (Homo sapiens, UniProt Q13490).
T2 construct: human cIAP-1 (residues 267-363) fused to a GST-tag; GST-tag (cleaved yes); made in house; host or cells: Escherichia coli
Description: cIAP-1 in vitro competitive displacement binding assay (fluorescence polarization). The following applies: PI at […], 180 min, […].

Where [4] appears, read: EVSA-T cells, 72 hours, Alamar Blue, hydrochloride, read-out: EVSA-T prolif.
The mark [5] stands for this setting: plain number = IC50, average where more than one data point, read-out: Xiap IC50 or PI μM (IC50).
Setting [6] is: EVSA-T cells, 72 hours, Alamar Blue, dihydrochloride, read-out: EVSA-T prolif.
[7] abbreviates: Homo sapiens, EVSA-T, read-out: EC50 in EVSA-T cell line assays.
The mark [8] stands for this setting: or at least 50% inhibition of the activity at 0.1 μM, read-out: IC50 in the XIAP assay.
Where [9] appears, read: Homo sapiens, EVSA-T, 72 h, EVSA-T cells, 72 hours, Alamar Blue, read-out: EVSA-T prolif.

T2 sequence (Q13490 267-363): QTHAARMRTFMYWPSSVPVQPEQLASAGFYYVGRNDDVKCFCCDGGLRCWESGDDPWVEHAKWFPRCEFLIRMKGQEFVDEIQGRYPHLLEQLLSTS

As for `C[C@@H]1CN(CC(=O)N2CC(C)(C)c3ncc(Cc4ccc(F)cc4)cc32)[C@@H](CN2CCCCC2C(F)(F)F)CN1` (single isomer, unassigned) [Example 26, 1-{6-[(4-Fluorophenyl)methyl]-3,3-dimethyl-1H,2H,3H-pyrrolo[3,2-b]pyridin-1-yl}-2-[(2R,5R)-5-methyl-2-{[2-([R or S]trifluoromethyl)piperidin-1-yl]methyl}piperazin-1-yl]ethan-1-one hydrochloride], the EC50 in assay [1] (setting [4]) came to 120 nM. In addition, the IC50 in assay [2] (setting [5]) was found to be 0.21 µM. The “cIAP1 IC50 or PI μM (PI)” value in assay [3] (hydrochloride) stood at 94%@0.012.

On to `C[C@@H]1CN(CC(=O)N2CC(C)(C)c3ncc(Cc4ccc(F)cc4)cc32)[C@@H](CN2CCOCC2C(F)(F)F)CN1` (single isomer, unassigned) [Example 27, 1-{6-[(4-Fluorophenyl)methyl]-3,3-dimethyl-1H,2H,3H-pyrrolo[3,2-b]pyridin-1-yl}-2-[(2R,5R)-5-methyl-2-{[3-([R or S]trifluoromethyl)morpholin-4-yl]methyl}piperazin-1-yl]ethan-1-one hydrochloride], for which, in assay [1] (setting [4]), the EC50 was 15 nM. For the same compound, the IC50 in assay [2] (setting [5]) came to 0.13 µM. In assay [3] (hydrochloride), the “cIAP1 IC50 or PI μM (PI)” value turned out to be 90%@0.012.

In the case of `COCC1(C)COCCN1C[C@H]1CN[C@H](C)CN1CC(=O)N1CC(C)(C)c2ncc(Cc3ccc(F)cc3)cc21` (single isomer, unassigned) [Example 100, dihydrochloride], the EC50 was 0.92 nM in assay [1] (setting [6]) and < 1000 nM in assay [1] (setting [7]). In addition, in assay [2] (PI at 0.04 μM), the inhibition at 0.04 µM was 56%. Also, the IC50 in assay [2] (setting [8]) was < 0.1 µM. Besides, in assay [3] (dihydrochloride), the “cIAP1 IC50 or PI μM (PI)” value is reported as 99%@0.012.

Consider `C[C@@H]1CN(CC(=O)N2CC(C)(C)c3ncc(C(O)c4cccc(F)c4)cc32)[C@@H](CN2[C@H](C)COC[C@H]2C)CN1` (single isomer, unassigned) [Example 106, 2-[(2R,5R)-2-{[(3R,5R)-3,5-Dimethylmorpholin-4-yl]methyl}-5-methylpiperazin-1-yl]-1-{6-[(R or S)-(3-fluorophenyl)-(hydroxy)methyl]-3,3-dimethyl-1H,2H,3H-pyrrolo[3,2-b]pyridin-1-yl}ethan-1-one dihydrochloride], for which, in assay [1] (setting [6]), the EC50 was found to be 4.3 nM. Also, in assay [2] (PI at 0.04 μM, 60 min, dihydrochloride, 0.04 µM), the “Xiap IC50 or PI μM (PI)” value is recorded as 42%@0.04. Moreover, in assay [3] (dihydrochloride), the “cIAP1 IC50 or PI μM (PI)” value was 88%@0.012.

As for `CC(=O)N1CCN(C[C@H]2CN[C@H](C)CN2CC(=O)N2CC(C)(C)c3cnc(Cc4ccc(F)cc4)cc32)[C@H](C)C1` [Example 56, 2-[(2R,5R)-2-{[(2R)-4-Acetyl-2-methylpiperazin-1-yl]methyl}-5-methylpiperazin-1-yl]-1-{6-[(4-fluorophenyl)methyl]-3,3-dimethyl-1H,2H,3H-pyrrolo[3,2-c]pyridin-1-yl}ethan-1-one, dihydrochloride], the EC50 in assay [1] (setting [9]) was 0.42 nM; in assay [1] (setting [7]) it was < 1000 nM. In addition, in assay [2] (PI at 0.04 μM), the inhibition at 0.04 µM was 70%.

As for `C[C@@H]1CN(CC(=O)N2CC(C)(C)c3ncc(Cc4ccc(F)cc4F)cc32)[C@@H](CN2CCOC[C@]2(C)CO)CN1` [Example 57, 1-{6-[(2,4-Difluorophenyl)methyl]-3,3-dimethyl-1H,2H,3H-pyrrolo[3,2-b]pyridin-1-yl}-2-[(2R,5R)-2-{[(3S)-3-(hydroxymethyl)-3-methylmorpholin-4-yl]methyl}-5-methylpiperazin-1-yl]ethan-1-one, dihydrochloride], the values for the EC50 in assay [1] (setting [9]) and in assay [1] (setting [7]) were 2.6 nM and < 1000 nM, respectively. The inhibition at 0.04 µM in assay [2] (PI at 0.04 μM) turned out to be 41%.

With `C[C@@H]1CN(CC(=O)N2CC(C)(C)c3ncc(Cc4ccc(F)cc4F)cc32)[C@@H](CN2CCOC[C@@]2(C)CO)CN1` [Example 58, 1-{6-[(2,4-Difluorophenyl)methyl]-3,3-dimethyl-1H,2H,3H-pyrrolo[3,2-b]pyridin-1-yl}-2-[(2R,5R)-2-{[(3R)-3-(hydroxymethyl)-3-methylmorpholin-4-l]methyl}-5-methylpiperazin-1-yl]ethan-1-one, dihydrochloride], the EC50 in assay [1] (setting [9]) is 0.7 nM; in assay [1] (setting [7]) it was < 1000 nM. Besides, the inhibition at 0.04 µM in assay [2] (PI at 0.04 μM) worked out at 51%. Moreover, the IC50 in assay [2] (setting [8]) is < 0.1 µM.

Regarding `C[C@@H]1CN(CC(=O)N2CC(C)(C)c3ncc(Cc4ccc(F)cc4)cc32)[C@@H](CN2CCOCC2(C)C(=O)O)CN1` (stereo partly drawn) [Example 59, 4-{[(2R,5R)-1-(2-{6-[(4-Fluorophenyl)methyl]-3,3-dimethyl-1H,2H,3H-pyrrolo[3,2-b]pyridin-1-yl}-2-oxoethyl)-5-methylpiperazin-2-yl]methyl}-3-methylmorpholine-3-carboxylic acid, dihydrochloride], the EC50 in assay [1] (setting [9]) was 42 nM; in assay [1] (setting [7]) it was < 1000 nM. For the same compound, the half-maximal inhibitory concentration (IC50) in assay [2] (setting [5]) is 0.34 µM.

Consider `CCCC(F)(F)c1cc2c(cn1)C(C)(C)CN2C(=O)CN1C[C@@H](C)NC[C@@H]1CN1CCN(C(C)=O)C[C@H]1C` [Example 60, 2-[(2R,5R)-2-{[(2R)-4-Acetyl-2-methylpiperazin-1-yl]methyl}-5-methylpiperazin-1-yl]-1-[6-(1,1-difluorobutyl)-3,3-dimethyl-1H,2H,3H-pyrrolo[3,2-c]pyridin-1-yl]ethan-1-one, dihydrochloride], for which the EC50 in assay [1] (setting [9]) is 6.7 nM; in assay [1] (setting [7]) it was < 1000 nM. Also, the inhibition at 0.04 µM in assay [2] (PI at 0.04 μM) is 74%.

For the compound `C[C@@H]1CN(CC(=O)N2CC(C)(C)c3cnc(Cc4ccc(F)cc4)cc32)[C@@H](CN2CCOC[C@@]2(C)CO)CN1` [Example 62, 1-{6-[(4-Fluorophenyl)methyl]-3,3-dimethyl-1H,2H,3H-pyrrolo[3,2-c]pyridin-1-yl}-2-[(2R,5R)-2-{[(3R)-3-(hydroxymethyl)-3-methylmorpholin-4-yl]methyl}-5-methylpiperazin-1-yl]ethan-1-one, dihydrochloride], the EC50 in assay [1] (setting [9]) was 1.1 nM; in assay [1] (setting [7]) it was < 1000 nM. For the same compound, the inhibition at 0.04 µM in assay [2] (PI at 0.04 μM) was found to be 60%.

On to `C[C@@H]1CN(CC(=O)N2CC(C)(C)c3nnc(Cc4ccc(F)cc4)cc32)[C@@H](CN2[C@H](C)COC[C@H]2C)CN1` [Example 87, 2-[(2R,5R)-2-{[(3R,5R)-3,5-Dimethylmorpholin-4-yl]methyl}-5-methylpiperazin-1-yl]-1-{3-[(4-fluorophenyl)methyl]-7,7-dimethyl-5H,6H,7H-pyrrolo[3,2-c]pyridazin-5-yl}ethan-1-one dihydrochloride], for which the EC50 in assay [1] (setting [9]) was 0.66 nM; in assay [1] (setting [7]), < 1000 nM. Moreover, the IC50 in assay [2] (setting [5]) turned out to be 0.14 µM.

On to `C[C@@H]1CN(CC(=O)N2CC(C)(C)c3nnc(Cc4ccc(F)cc4F)cc32)[C@@H](CN2[C@H](C)COC[C@H]2C)CN1` [Example 88, 1-{3-[(2,4-Difluorophenyl)methyl]-7,7-dimethyl-5H,6H,7H-pyrrolo[3,2-c]pyridazin-5-yl}-2-[(2R,5R)-2-{[(3R,5R)-3,5-dimethymorpholin-4-yl]methyl}-5-methylpiperazin-1-yl]ethan-1-one dihydrochloride], for which the EC50 in assay [1] (setting [9]) was 0.24 nM; in assay [1] (setting [7]), < 1000 nM. Besides, the IC50 in assay [2] (setting [5]) was 0.22 µM.

For the compound `C[C@@H]1CN(CC(=O)N2CC(C)(C)c3cc(C#N)c(Cc4ccc(F)cc4)cc32)[C@@H](CN2[C@H](C)COC[C@H]2C)CN1` [Example 92, 1-{2-[(2R,5R)-2-{[(3R,5R)-3,5-Dimethylmorpholin-4-yl]methyl}-5-methylpiperazin-1-yl]acetyl}-6-[(4-fluroophenyl)methyl]-3,3-dimethyl-2,3-dihydro-1H-indole-5-carbonitrile dihydrochloride], the figures for the EC50 in assay [1] (setting [9]) and in assay [1] (setting [7]) were 2.7 nM and < 1000 nM, respectively. Besides, in assay [2] (PI at 0.04 μM), the inhibition at 0.04 µM came to 54%.

For `COC[C@@H]1COCCN1C[C@H]1CN[C@H](C)CN1CC(=O)N1CC(C)(C)c2cnc(Cc3ccc(F)cc3)cc21` [Example 96, 1-{6-[(4-Fluorophenyl)methyl]-3,3-dimethyl-1H,2H,3H-pyrrolo[3,2-c]pyridin-1-yl}-2-[(2R,5R)-2-{[(3R)-3-(methoxymethyl)morpholin-4-yl]methyl}-5-methylpiperazin-1-yl]ethan-1-one dihydrochloride], the EC50 in assay [1] (setting [9]) was 1.7 nM; in assay [1] (setting [7]), < 1000 nM. The inhibition at 0.04 µM in assay [2] (PI at 0.04 μM) came out at 49%.

Turning to `COC[C@]1(C)COCCN1C[C@H]1CN[C@H](C)CN1CC(=O)N1CC(C)(C)c2cnc(Cc3ccc(F)cc3F)cc21` [Example 97, 1-{6-[(2,4-Difluorophenyl)methyl]-3,3-dimethyl-1H,2H,3H-pyrrolo[3,2-c]pyridin-1-yl}-2-[(2R,5R)-2-{[(3R)-3-(methoxymethyl)-3-methylmorpholin-4-yl]methyl}-5-methylpiperazin-1-yl]ethan-1-one dihydrochloride], the EC50 in assay [1] (setting [9]) was 2.3 nM; in assay [1] (setting [7]), < 1000 nM. For the same compound, the inhibition at 0.04 µM in assay [2] (PI at 0.04 μM) is 44%.

`COC[C@@]1(C)COCCN1C[C@H]1CN[C@H](C)CN1CC(=O)N1CC(C)(C)c2cnc(Cc3ccc(F)cc3F)cc21` [Example 98, 1-{6-[(2,4-Difluorophenyl)methyl]-3,3-dimethyl-1H,2H,3H-pyrrolo[3,2-c]pyridin-1-yl}-2-[(2R,5R)-2-{[(3S)-3-(methoxymethyl)-3-methylmorpholin-4-yl]methyl}-5-methylpiperazin-1-yl]ethan-1-one dihydrochloride]: the EC50 in assay [1] (setting [9]) was 7.3 nM; in assay [1] (setting [7]), < 1000 nM. Besides, the inhibition at 0.04 µM in assay [2] (PI at 0.04 μM) came out at 62%. Also, in assay [2] (setting [8]), the IC50 was < 0.1 µM.

Source of the values: patent US9980973B2, “Bicyclic heterocycle compounds and their uses in therapy” (ASTEX THERAPEUTICS LIMITED, priority 2012, dated 2018).
